Assay: gradient 5% acetonitrile 3 min, to 50% in 2 min, to 85% in 15 min, held 3 min, 100 µL/min
Details: column: Zorbax Extend-C18 2.1 x 50 mm; eluents: water / acetonitrile, 0.1% formic acid
Procedure, shortened: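 Values are retention times taken from adduct peaks that software picked and an analyst inspected. The pure standards were run as mixtures of ~100 molecules on HPLC linked to a quadrupole time-of-flight mass spectrometer, in positive and negative ionization mode. A Zorbax Extend-C18 column (2.1 × 50 mm, 1.8 μm) was used at 100 μL/min with water and acetonitrile, each including 0.1% formic acid.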

| RP-LC retention time | Structure (SMILES) |
| --- | --- |
| 898 s | COc1ccc(-c2nc(C3CC(=O)N(c4ccc(F)cc4)C3)no2)c(OC)c1 (stereo not given) |
| 658 s | Cc1cc(C)c2c(N3CCSCC3)nc(C(=O)NCC(C)C)nc2n1 |
| 1330 s | Cc1sc(C)c(S(=O)(=O)N2CCN(c3ccccc3F)CC2)c1-c1cc(C(F)(F)F)on1 |
| 657 s | CN(C)CCN1CC(C(=O)N2CCC(c3c[nH]c4ccccc34)(c3c[nH]c4ccccc34)CC2)CC1=O (stereo not given) |
| 782 s | COc1ccc(CCS(=O)(=O)Nc2ccc(CC(=O)NCc3cccs3)cc2)cc1 |
| 610 s | CCOc1ccc(NC(=O)N2CCN(CCn3c(C(C)C)nc4cccnc43)CC2)cc1 |
| 958 s | Cc1ccc2c(c1)N(S(C)(=O)=O)CCC(C(=O)Nc1ccc(F)cc1F)O2 (stereo not given) |
| 1140 s | O=C(Nc1cccc(C(F)(F)F)c1)Nc1nc(-c2ccccc2)cs1 |
| 968 s | O=C(Nc1ccc2c(c1)OCCO2)C1CCCN(S(=O)(=O)Cc2ccccc2Cl)C1 (stereo not given) |
| 632 s | CC1CCCC(C)N1CCCNC(=O)Cn1ncc2c3ccccc3n(C)c2c1=O (stereo not given) |
| 922 s | O=c1n(Cc2ccc(F)cc2Cl)nc2ccc(S(=O)(=O)N3CCCC3)cn12 |
| 1080 s | COC(=O)c1cc(S(=O)(=O)N2CCN(c3cccc(C)c3)C(C)C2)c(C)n1C (stereo not given) |
| 650 s | Cn1cnnc1-c1nn(C)c2c1CN(C(=O)c1n[nH]c3c1CCCCCC3)CC2 |
| 637 s | Cc1cc(N2CCN(C(=O)Nc3ccccc3Cl)CC2)nc(N2CCOCC2)n1 |
| 649 s | O=C(O)c1ccc(N2CCN(c3ccccn3)CC2)c(NS(=O)(=O)c2ccc(F)c(F)c2)c1 |
| 1140 s | COc1cc(OC)c(NC(=O)c2ncoc2-c2ccc(OC)c(OC)c2)cc1Cl |
| 682 s | CCc1cccc(NC(=O)Cn2c(N3CCCC3)nc(C)cc2=O)c1 |
| 1260 s | Clc1ccc(-c2noc(Cc3nc(-c4ccc5c(c4)OCO5)cs3)n2)cc1 |

| RP-LC retention time | Structure (SMILES) |
| --- | --- |
| 602 s | COc1ccc(-c2cc(N3CCN(C(=O)NC(C)C)CC3)ncn2)cc1OC |
| 618 s | CCCN1CCN(C(=O)c2c(C)sc3ccn(CC(C)C)c(=O)c23)CC1 |
| 814 s | O=C(NCC(O)c1cccc2ccccc12)c1ccccc1C(F)(F)F (stereo not given) |
| 740 s | O=C1CC(C(=O)N2CCN(Cc3ccccc3)CC2)CN1CCc1ccccc1 (stereo not given) |
| 722 s | CC(C(=O)N1CCC(c2cc(N)on2)CC1)c1ccccc1 (stereo not given) |
| 746 s | O=C1NC2(CCN(C(=O)Nc3ccc4c(c3)OCO4)CC2)N=C1c1ccccc1 |
| 847 s | CSc1ccc(NC(=O)NC2CCN(c3ccc(F)cc3)C2=O)cc1 (stereo not given) |
| 555 s | O=C(CCc1ccc2nc(-c3ccccc3)[nH]c2c1)NCc1cccnc1 |
| 594 s | COc1ccc(N2CCN(C(=O)C3CC(=O)N(c4ccc(C)c(C)c4)C3)CC2)nn1 (stereo not given) |
| 639 s | O=C(CN1C(=O)C2CCCCN2c2ccc(C(=O)N3CCCC3)cc21)NCCCN1CCCCCC1 (stereo not given) |
| 737 s | O=C(NCCC1=CCCCC1)C1CCN(c2cnc3nccnc3c2)CC1 |
| 966 s | CCn1c(=O)c(C)nc2cc(-c3noc(C4CC(=O)N(c5cccc(Cl)c5)C4)n3)ccc21 (stereo not given) |
| 670 s | CCS(=O)(=O)N1CCC[C@@H]2CN3CCc4cc(OC)ccc4[C@@H]3C[C@@H]21 |
| 996 s | Cc1cccc(-c2noc(Cn3cnc4c(oc5ccccc54)c3=O)n2)c1 |
| 835 s | COc1ccc(N2CC(c3nnc(NC(=O)c4ccc(Cl)cc4)o3)CC2=O)cc1 (stereo not given) |
| 641 s | COc1cc(NC(=O)Cn2nc(C(=O)N3CCCC3)c3ccccc32)cc(OC)c1 |
| 945 s | CCOc1ccccc1CNC(=O)c1nnc(-c2ccc(S(=O)(=O)N(C)C)cc2)o1 |
| 782 s | CCCC(=O)NC(C)c1nc(-c2ccccc2)no1 (stereo not given) |

The remaining lines, values behind:

| Structure (SMILES) | RP-LC retention time |
| --- | --- |
| Cc1cc(C)n(-c2ccnc(N3CCC(C(=O)NCCc4cccs4)CC3)n2)n1 | 843 s |
| CCCNC(=O)Nc1ccc(NC(=O)N2CCCC(C(=O)NCC3CCCCC3)C2)cc1 (stereo not given) | 776 s |
| Cc1nn(CC(=O)NC(C)(C)C)c(C)c1S(=O)(=O)N1CCC(C(=O)N2CCC(C)CC2)CC1 | 794 s |
| COc1ccc(CN2CCc3nc(N4CCN(c5ncccn5)CC4)ncc3C2)cc1 | 584 s |
| CNC(=O)[C@@H]1CN(C(=O)c2cc(C3CC3)[nH]n2)C[C@H]1c1n[nH]c(C)n1 | 577 s |
| Cc1ccc(-c2nc3n(c2CNC(=O)c2ccco2)CCS3)cc1 | 639 s |
| CCc1ccc(NC(=O)CSC2=C(C#N)C3(CCCCC3)C(C#N)C(=O)N2)cc1 (stereo not given) | 1030 s |
| Cc1cc(C(=O)NCCN2CCN(c3cccc(C)c3C)CC2)n(-c2ccccc2)n1 | 705 s |
| Cc1c(S(=O)(=O)CCNC(=O)Nc2ccc3c(c2)OCO3)c2ccccc2n1C | 729 s |
| Cc1sc(NC(=O)c2cccs2)nc1-c1ccc2c(c1)NC(=O)CO2 | 842 s |
| CC1Oc2ccccc2N(Cc2nc(-c3cccc(Br)c3)no2)C1=O (stereo not given) | 1200 s |
| Cc1c(C(=O)O)nnn1-c1ccc(C(F)(F)F)cc1 | 730 s |
| CC1Oc2ccccc2C=C1/C=C1\Oc2cc(OC(=O)N(C)C)ccc2C1=O (stereo not given) | 795 s |
| CCN1CCN(c2cc(C)c3cc(NC(=S)NCc4ccc5c(c4)OCO5)ccc3n2)CC1 | 590 s |
| O=c1cc(CSc2nnc(-c3ccccc3F)o2)nc2sccn12 | 745 s |
| CCc1nn2c(CNC(=O)c3ccn(CC)n3)c(-c3ccccc3)nc2s1 | 822 s |
| CCc1nc2cc(-c3noc(-c4c(F)cccc4Cl)n3)ccc2o1 | 1190 s |
| Cn1c(=O)c(=O)n(CC(=O)NCCc2ccco2)c2cccnc21 | 646 s |
| Cc1ccsc1C(=O)N1CCc2nn(C)c(=O)n2CC1 | 610 s |
| CC1CCN(C(=O)c2nc(-c3ccnc(N4CCCC4)c3)no2)CC1 | 684 s |
| CC[C@H]1[C@@H]2C[C@H]3[C@@H]4N(C)c5ccccc5[C@]45C[C@@H]([C@H]2[C@H]5O)N3[C@@H]1O | 652 s |
| CCC1CCCCN1C(=O)c1cnc2nc(C)ccc2c1Nc1ccc(C)cc1 (stereo not given) | 674 s |
| O=C(CN1C(=O)NC2(CCCCC2)C1=O)NCc1ccccc1Cl | 746 s |
| CCN1C(=O)CC[C@]2(CNC(=O)c3ccc(OC)nc3)CCC[C@@H]12 | 671 s |
| CSc1nnc(-c2nn(C)c3c2CN(C(=O)c2ccc(F)cc2)CC3)n1C | 656 s |
| Cc1cccc(CN2C[C@@H]3C(=O)N(CCc4ccccc4)C(=O)[C@@H]3C2)c1 | 777 s |
| CN1CCCc2cc(CCNC(=O)C(=O)NCCC3=CCCCC3)ccc21 | 842 s |
| COc1ccc(-c2nc(NCc3ccco3)ncc2C(=O)O)cc1 | 781 s |
| Cc1cccc(-c2noc(-c3nn(CC(=O)NC4CCCCC4)c4ccccc34)n2)c1 | 1250 s |

Reference: the METLIN SMRT retention time set (Domingo-Almenara et al. 2019)
